Measured values published in patent US20250084097A1, “MACROCYCLIC AMIDE COMPOUNDS AND APPLICATION THEREOF” (Medshine Discovery Inc., priority 2021, published 2025).
Like-named read-outs stand apart in the source and are kept apart here.

What was measured:
EGFR (WT) = molecular target: T1, EGFR (WT) (Homo sapiens, UniProt P00533); assay: Kinase inhibitory activity, 33P-ATP filtration-binding (Reaction Biology Corp.); assay type: biochemical; settings: ATP 100 μM; read-out: Kinase half-maximal inhibition concentration IC50 EGFR(WT)
T1 construct: Reaction Biology Corp. (assay performed there)
Experimental: (§1) Compound assay for kinase inhibitory activity against EGFR (L858R/T790M/C797S), EGFR (del19-E746-A750/T790M/C797S), and EGFR (WT) was done at Reaction Biology Corp. In reaction buffer (20 mM Hepes (pH 7.5), 10 mM magnesium chloride (MgCl2), 1 mM ethylenebis(oxyethylenenitrilo)tetraacetic acid (EGTA), 0.02% polyethylene glycol monododecyl ether (Brij35), 0.02 mg/ml BSA, 0.1 mM sodium vanadate (Na3VO4), 2 mM dithiothreitol (DTT), 1% DMSO), a certain concentration of substances, coenzyme factors, kinases and test compounds (10 doses, 3-fold serial dilutions, 2% DMSO final concentration) were added in sequence, and mixed well. The mixture was incubated at room temperature for 20 minutes. A certain concentration of ^33P-ATP was added to the reaction mixture to initiate reaction, followed by incubation at room temperature for 120 minutes. Finally, the radioactivity of the reactants was detected by filtration-binding method. The final kinase activity was expressed as the ratio of the remaining kinase activity of the test sample to the kinase activity of the DMSO control group. The dose-response relationship curve was fitted and IC50 was calculated using GraphPad software.

EGFR (L858R/T790M/C797S) = molecular target: T2, EGFR (L858R/T790M/C797S) (Homo sapiens, UniProt P00533, C797S/L858R/T790M); assay: as above; assay type: biochemical; settings: ATP 100 μM; read-out: Kinase half-maximal inhibition concentration IC50 EGFR(L858R/T790M/C797S)
T2 construct: Reaction Biology Corp. (assay performed there)
Experimental: as §1

[1] = molecular target: T3, EGFR (del19-E746-A750/T790M/C797S) (Homo sapiens, UniProt P00533, C797S/DEL746-750/T790M); assay: as above; assay type: biochemical; settings: ATP 100 μM; read-out: Kinase half-maximal inhibition concentration IC50 EGFR(del19-E746-A750/T790M/C797S)
T3 construct: Reaction Biology Corp. (assay performed there)
Experimental: as §1

[2] = molecular target: Ba/F3-FL-EGFR (L858R/T790M/C797S) (Homo sapiens, UniProt P00533, T790M/C797S/L858R, cells depend on it); assay: Cell proliferation inhibition, CellTiter-Glo; assay type: cell-based
Experimental: AdenosineTri-Phosphate (ATP) is an energy carrier shared by various life activities in nature, and is the smallest unit of energy storage and transfer. The CellTiter-Glo™ living cell assay kit uses luciferase as a detector, and luciferase requires the participation of ATP in the process of luminescence. CellTiter-Glo™ reagent is added to a cell culture medium, and the luminescence value is measured. The light signal is directly proportional to the amount of ATP in the system, and ATP is positively correlated with the number of living cells. Therefore, cell proliferation can be detected by detecting ATP content with the CellTiter-Glo kit. In this assay, the cell lines were Ba/F3-FL-EGFR (L858R/T790M/C797S), Ba/F3-FL-EGFR (WT), Ba/F3-FL-EGFR (L858R), Ba/F3-FL-EGFR (del19-S752-I759), Ba/F3-FL-EGFR (del19-E746-A750/T790M/C797S), Ba/F3-FL-EGFR (L858R/T790M), Ba/F3-FL-EGFR (del19-E746-A750/T790M), Ba/F3-TEL-EGFR (L858R/C797S), Ba/F3-FL-EGFR (del19-E746-A750/C797S) stably transfected cell lines.
The cell lines were cultured in an incubator at 37° C. and 5% CO2. The cells were periodically passaged, and cells in logarithmic growth phase were taken for plating.
a) DMSO was used to prepare a 10 mM solution of the compound to be tested, and then the compound to be tested was diluted to 0.3 or 1 mM with DMSO.
b) Preparation of 1000× compound storage plate (tube): DMSO was used to dilute by 3-fold gradient from the highest concentration to the lowest concentration, with a total of 9 concentrations.
c) Preparation of 20× compound working solution: 49 μL of cell culture medium was added to a flat-bottomed 96-well transparent drug plate, and 1 μL of compound was pipetted from the 1000× compound storage plate to the cell culture medium of the 96-well transparent drug plate. 1 μL of DMSO was added to the vehicle control. After adding compound or DMSO, the well content was mixed to uniform by aspiration and expelling with pipette.
a) Cells were stained with trypan blue and viable cells were counted. The cell viability rate was required to be above 90%.
b) 95 μL of cell suspension (2000 cells/well) was added to each well of the compound detection cell plate, and culture medium without cells (containing 0.1% DMSO) was added to the Min control well.
c) Dosing in the compound detection cell plate: 5 μL of 20× compound working solution was added to the cell culture plate. 5 μL of DMSO-cell culture mixture was added to the Max control. The final concentration of DMSO was 0.1%.
d) The culture plate was incubated in an incubator at 37° C., 5% CO2 for 72 hours.
Cell proliferation inhibition rate (Inhibition Rate) data were processed using the following formula:
Inhibition Rate (Inh %)=100−(RLUDrug−RLUMin)/(RLUMax−RLUMin)*100%.
The inhibition rates corresponding to different concentrations of compounds were calculated, and then GraphPad Prism software was used to draw the inhibition rate curve and the IC50 value was calculated.

[3] = Pharmacokinetic assay of compounds in mice; assay type: in vivo, male ICR mice; settings: for Vd / AUC(0-t) / half-life / C0 / bioavailability / Cmax / Tmax: male, ICR, mouse, plasma; for Vd: read-out: Apparent volume of distribution Vd; for AUC(0-t): read-out: Area under the curve AUC0-last; for half-life: read-out: Half-life T1/2 (converted); for C0: read-out: Starting concentration C0; for bioavailability: PO 10 mg/kg vs IV 3 mg/kg, read-out: Bioavailability F %; for Cmax: read-out: Peak concentration Cmax; for Tmax: read-out: Time to peak Tmax
From the text: Assay purpose: 7-9-week-old male ICR mice were used as test animals. LC/MS/MS method was used to determine the drug concentration of the compound in the plasma at different times after a single intravenous injection (IV) and oral administration (PO) of the compound, to study the pharmacokinetic behavior of the compounds of the present disclosure in mice, and to evaluate their pharmacokinetic characteristics.
Formulation of drug: The compounds were formulated as solutions in the respective solvents for administration in IV (intravenous injection) and PO (oral administration) groups. The dose of each compound was 3 mg/kg for IV and 10 mg/kg for PO, and the vehicle was 10% DMSO+10% solutol+80% (10% HP-β-CD).

[4] = 72 hours, read-out: Cell half-maximal inhibition concentration IC50 Ba/F3-FL-EGFR (L858R/T790M/C797S)

Sequence of Ba/F3-FL-EGFR (L858R/T790M/C797S) (P00533 whole entry T790M/C797S/L858R): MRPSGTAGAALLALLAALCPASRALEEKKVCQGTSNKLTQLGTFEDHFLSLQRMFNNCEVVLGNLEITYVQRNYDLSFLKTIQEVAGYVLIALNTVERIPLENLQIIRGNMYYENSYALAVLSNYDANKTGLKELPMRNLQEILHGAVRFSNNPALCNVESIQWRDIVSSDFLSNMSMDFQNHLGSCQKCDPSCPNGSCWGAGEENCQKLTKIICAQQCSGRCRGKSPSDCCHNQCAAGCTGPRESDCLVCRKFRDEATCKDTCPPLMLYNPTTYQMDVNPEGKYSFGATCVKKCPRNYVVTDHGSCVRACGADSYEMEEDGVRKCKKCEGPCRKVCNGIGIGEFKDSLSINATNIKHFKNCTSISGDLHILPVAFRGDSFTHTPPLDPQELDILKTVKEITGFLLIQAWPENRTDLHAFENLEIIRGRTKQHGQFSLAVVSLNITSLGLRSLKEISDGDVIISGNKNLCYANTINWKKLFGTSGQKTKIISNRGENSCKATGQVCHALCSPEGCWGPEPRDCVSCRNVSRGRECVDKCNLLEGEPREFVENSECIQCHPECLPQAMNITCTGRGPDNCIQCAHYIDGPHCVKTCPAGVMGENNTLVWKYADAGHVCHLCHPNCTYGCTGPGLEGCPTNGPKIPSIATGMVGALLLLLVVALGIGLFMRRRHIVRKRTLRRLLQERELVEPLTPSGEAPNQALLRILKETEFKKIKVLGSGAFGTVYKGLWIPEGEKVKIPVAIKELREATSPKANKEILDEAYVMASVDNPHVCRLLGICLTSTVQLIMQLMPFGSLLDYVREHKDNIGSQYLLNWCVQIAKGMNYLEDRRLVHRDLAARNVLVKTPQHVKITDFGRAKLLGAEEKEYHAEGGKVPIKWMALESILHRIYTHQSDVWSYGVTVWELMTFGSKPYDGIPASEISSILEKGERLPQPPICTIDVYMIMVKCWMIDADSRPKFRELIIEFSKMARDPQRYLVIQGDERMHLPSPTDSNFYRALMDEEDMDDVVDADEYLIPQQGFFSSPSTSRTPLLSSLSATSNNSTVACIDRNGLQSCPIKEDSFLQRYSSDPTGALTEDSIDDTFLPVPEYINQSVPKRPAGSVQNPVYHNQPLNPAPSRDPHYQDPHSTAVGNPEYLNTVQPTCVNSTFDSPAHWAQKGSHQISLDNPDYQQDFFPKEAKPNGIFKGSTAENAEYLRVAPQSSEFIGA
T3 sequence (P00533 with tags, fused parts or gaps DEL746-750/T790M/C797S): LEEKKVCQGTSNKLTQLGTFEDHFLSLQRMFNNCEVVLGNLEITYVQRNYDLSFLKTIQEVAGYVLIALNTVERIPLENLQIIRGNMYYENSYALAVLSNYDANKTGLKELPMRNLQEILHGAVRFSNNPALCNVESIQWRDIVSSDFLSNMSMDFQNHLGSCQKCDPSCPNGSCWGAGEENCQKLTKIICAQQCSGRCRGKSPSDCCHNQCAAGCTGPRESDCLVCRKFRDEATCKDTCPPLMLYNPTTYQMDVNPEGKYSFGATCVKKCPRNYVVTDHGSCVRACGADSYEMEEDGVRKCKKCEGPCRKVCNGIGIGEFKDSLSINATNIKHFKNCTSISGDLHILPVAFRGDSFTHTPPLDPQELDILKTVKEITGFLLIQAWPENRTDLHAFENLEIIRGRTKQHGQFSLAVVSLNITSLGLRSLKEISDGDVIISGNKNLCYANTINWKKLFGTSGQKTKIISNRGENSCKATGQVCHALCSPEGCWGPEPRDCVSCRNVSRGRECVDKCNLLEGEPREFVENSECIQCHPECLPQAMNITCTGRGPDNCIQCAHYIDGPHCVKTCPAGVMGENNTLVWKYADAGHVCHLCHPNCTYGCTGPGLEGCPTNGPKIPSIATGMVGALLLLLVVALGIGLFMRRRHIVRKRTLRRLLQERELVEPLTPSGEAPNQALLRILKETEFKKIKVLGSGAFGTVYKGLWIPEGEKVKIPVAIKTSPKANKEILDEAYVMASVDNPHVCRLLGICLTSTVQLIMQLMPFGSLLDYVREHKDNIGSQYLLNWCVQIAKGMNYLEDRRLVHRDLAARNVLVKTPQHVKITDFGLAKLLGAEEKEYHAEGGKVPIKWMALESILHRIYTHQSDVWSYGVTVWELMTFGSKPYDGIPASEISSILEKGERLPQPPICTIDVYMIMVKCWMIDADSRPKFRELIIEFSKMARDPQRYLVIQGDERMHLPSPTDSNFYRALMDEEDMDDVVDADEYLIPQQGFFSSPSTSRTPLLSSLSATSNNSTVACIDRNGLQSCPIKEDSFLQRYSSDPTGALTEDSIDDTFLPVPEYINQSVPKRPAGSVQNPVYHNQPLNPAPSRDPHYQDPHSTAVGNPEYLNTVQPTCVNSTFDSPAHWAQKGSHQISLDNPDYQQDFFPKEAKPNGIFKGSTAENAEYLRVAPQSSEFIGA
T1 sequence (P00533 25-1210): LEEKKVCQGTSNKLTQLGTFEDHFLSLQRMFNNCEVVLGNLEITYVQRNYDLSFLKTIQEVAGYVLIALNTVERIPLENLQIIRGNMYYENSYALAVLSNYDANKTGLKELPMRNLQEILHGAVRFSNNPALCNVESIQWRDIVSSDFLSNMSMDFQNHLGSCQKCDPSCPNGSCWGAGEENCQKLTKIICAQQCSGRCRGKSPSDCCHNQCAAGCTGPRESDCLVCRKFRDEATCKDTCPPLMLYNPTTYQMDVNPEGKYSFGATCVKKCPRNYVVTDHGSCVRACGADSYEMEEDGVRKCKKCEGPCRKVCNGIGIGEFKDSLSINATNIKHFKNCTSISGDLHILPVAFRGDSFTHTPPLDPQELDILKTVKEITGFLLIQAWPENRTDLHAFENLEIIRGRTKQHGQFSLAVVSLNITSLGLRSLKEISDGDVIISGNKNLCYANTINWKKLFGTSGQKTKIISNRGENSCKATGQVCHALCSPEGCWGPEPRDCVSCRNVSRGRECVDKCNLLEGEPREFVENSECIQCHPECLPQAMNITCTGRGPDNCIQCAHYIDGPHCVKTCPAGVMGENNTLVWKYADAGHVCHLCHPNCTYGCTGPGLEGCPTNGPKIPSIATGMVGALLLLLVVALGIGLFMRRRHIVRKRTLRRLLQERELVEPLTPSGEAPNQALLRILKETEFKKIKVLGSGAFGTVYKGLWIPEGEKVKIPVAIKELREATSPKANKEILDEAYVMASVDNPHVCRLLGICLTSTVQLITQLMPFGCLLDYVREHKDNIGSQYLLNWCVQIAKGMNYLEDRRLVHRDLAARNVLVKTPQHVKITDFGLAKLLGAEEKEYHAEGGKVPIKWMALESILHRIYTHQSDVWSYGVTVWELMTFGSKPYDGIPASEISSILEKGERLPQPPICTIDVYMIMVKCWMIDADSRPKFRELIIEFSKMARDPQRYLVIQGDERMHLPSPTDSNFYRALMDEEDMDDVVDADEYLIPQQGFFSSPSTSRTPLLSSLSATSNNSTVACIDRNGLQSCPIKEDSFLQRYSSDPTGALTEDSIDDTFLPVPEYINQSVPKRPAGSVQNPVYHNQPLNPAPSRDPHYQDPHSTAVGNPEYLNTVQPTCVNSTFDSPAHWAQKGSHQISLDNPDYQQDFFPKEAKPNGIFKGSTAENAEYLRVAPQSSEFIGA
T2 sequence (P00533 25-1210 T790M/C797S/L858R): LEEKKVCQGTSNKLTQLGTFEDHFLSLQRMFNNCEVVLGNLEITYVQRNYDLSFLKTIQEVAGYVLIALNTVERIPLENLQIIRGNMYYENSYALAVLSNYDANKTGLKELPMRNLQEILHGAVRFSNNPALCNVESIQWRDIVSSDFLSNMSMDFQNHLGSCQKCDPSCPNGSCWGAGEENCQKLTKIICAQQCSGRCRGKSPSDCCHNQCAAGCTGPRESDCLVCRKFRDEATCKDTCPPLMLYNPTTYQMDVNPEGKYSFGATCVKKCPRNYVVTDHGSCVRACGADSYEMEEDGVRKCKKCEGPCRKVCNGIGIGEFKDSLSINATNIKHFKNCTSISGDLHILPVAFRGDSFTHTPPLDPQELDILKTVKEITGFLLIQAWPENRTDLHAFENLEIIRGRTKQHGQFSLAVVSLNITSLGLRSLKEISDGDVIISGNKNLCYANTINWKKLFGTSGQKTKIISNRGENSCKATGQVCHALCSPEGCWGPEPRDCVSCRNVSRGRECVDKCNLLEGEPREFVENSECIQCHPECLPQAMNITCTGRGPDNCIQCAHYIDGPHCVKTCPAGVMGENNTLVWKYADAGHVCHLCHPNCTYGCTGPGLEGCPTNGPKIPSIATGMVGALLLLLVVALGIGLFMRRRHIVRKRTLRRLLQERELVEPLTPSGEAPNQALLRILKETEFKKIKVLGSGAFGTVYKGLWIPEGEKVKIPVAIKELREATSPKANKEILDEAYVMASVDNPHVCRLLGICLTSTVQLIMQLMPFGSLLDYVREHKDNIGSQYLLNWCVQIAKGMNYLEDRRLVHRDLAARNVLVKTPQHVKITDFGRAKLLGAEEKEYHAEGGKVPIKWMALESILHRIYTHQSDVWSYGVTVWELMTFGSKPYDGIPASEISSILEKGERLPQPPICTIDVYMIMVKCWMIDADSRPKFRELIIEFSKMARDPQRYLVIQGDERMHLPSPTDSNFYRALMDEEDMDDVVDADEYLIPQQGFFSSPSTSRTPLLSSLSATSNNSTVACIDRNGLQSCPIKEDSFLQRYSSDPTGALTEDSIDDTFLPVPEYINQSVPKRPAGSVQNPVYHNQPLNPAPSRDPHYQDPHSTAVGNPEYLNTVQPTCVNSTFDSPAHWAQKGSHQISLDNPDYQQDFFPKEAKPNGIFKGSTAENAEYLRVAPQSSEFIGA

SMILES	IC50 (EGFR (WT)) [nM]	IC50 (EGFR (L858R/T790M/C797S)) [nM]	IC50 [1] [nM]	GI50 [2, 4] [nM]	Apparent clearance Cl ([3]; IV 3 mg/kg) [mL/min/kg]	Vd ([3]; IV 3 mg/kg) [L/kg]	AUC(0-t) ([3]; IV 3 mg/kg) [µM·h]	half-life ([3]; IV 3 mg/kg) [h]	C0 ([3]; IV 3 mg/kg) [µM]	bioavailability [3] [%]	AUC(0-t) ([3]; PO 10 mg/kg) [µM·h]	Cmax ([3]; PO 10 mg/kg) [µM]	Tmax ([3]; PO 10 mg/kg) [h]	GI50 ([2]; read-out: Cell half-maximal inhibition concentration IC50 Ba/F3-FL-EGFR (L858R/T790M/C797S), 72 hours) [nM]
Cc1cc2cc(n1)-c1cnn(C)c1OC[C@H]1CC[C@H](C1)CN1/C(=N/C2=O)Nc2ccc(N=S(C)(C)=O)cc21 (single isomer, unassigned) [WX-027A]	55.8	1.82	0.093	8.6	14.2	1	7.7	1.1	6.85	64	15.7	5.91	0.8	–
Cc1cc2cc(n1)-c1cnn(C)c1OCCC[C@@H](C)CN1/C(=N/C2=O)Nc2ccc(N=S(C)(C)=O)cc21 [WX-006]	–	–	–	–	14.6	1.9	6.54	3.6	8.14	83	18.1	3.59	1.5	–
Cc1cc2cc(n1)-c1cnn(C)c1OCCC[C@@H](C)CN1/C(=N/C2=O)Nc2ccc(N=S3(=O)CCCC3)cc21 [WX-010 (trifluoroacetate)]	–	–	–	2.8	5.7	1	16.1	2.8	8.14	56	30.1	4.49	1	–
Cc1cc2cc(n1)-c1cnn(C)c1OCCC[C@@H](C)CN1/C(=N/C2=O)Nc2ccc(N=S3(=O)CCOCC3)cc21 [WX-013]	–	–	–	–	4.7	1	18.9	3.3	12.1	34	21.5	3.94	1	4.3
Cc1cc2cc(n1)-c1cnn(C)c1OCCC[C@@H](C)CN1/C(=N/C2=O)Nc2ccc(N=S(C)(C)=O)c(Cl)c21 [WX-019]	212	3.55	0.139	5.7	8.6	1.6	10.6	2.5	5.73	65	23.2	3.92	1	–
